Results from PubChem BioAssay (NCI).
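Briefly, cells in 96-well plates were exposed to five compound concentrations for 48 h, and endpoints were estimated by linear interpolation. TGI marks complete inhibition of growth.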 Where a SMILES comes first, the peptide text is derived from it. The star is where a group is joined. Fmoc = O=C(OCC1c2ccccc2-c2ccccc21)*; Boc = CC(C)(C)OC(=O)*

Legend:
Experiment in all cases: growth of human tumour cells (NCI), 48 h
NCI-H23 lung = test system: NCI-H23 lung
HOP-62 NSCLC = test system: HOP-62 NSCLC
HS 578T breast = test system: HS 578T breast
SF-539 CNS = test system: SF-539 CNS
HT29 colon = test system: HT29 colon
SK-OV-3 ovarian = test system: SK-OV-3 ovarian
OVCAR-5 ovarian = test system: OVCAR-5 ovarian
SNB-19 CNS = test system: SNB-19 CNS
MDA-MB-435 = test system: MDA-MB-435
BT-549 breast = test system: BT-549 breast
KM12 colon = test system: KM12 colon
HOP-92 NSCLC = test system: HOP-92 NSCLC
SF-268 CNS = test system: SF-268 CNS
NCI-H460 lung = test system: NCI-H460 lung
CAKI-1 renal = test system: CAKI-1 renal
OVCAR-8 ovarian = test system: OVCAR-8 ovarian
NCI/ADR-RES ovarian = test system: NCI/ADR-RES ovarian
HCC-2998 colon = test system: HCC-2998 colon

| SMILES | TGI (NCI-H23 lung) | TGI (HOP-62 NSCLC) | TGI (HS 578T breast) | TGI (SF-539 CNS) | TGI (HT29 colon) | TGI (SK-OV-3 ovarian) | TGI (OVCAR-5 ovarian) | TGI (SNB-19 CNS) | TGI (MDA-MB-435) | TGI (BT-549 breast) | TGI (KM12 colon) | TGI (HOP-92 NSCLC) | TGI (SF-268 CNS) | TGI (NCI-H460 lung) | TGI (CAKI-1 renal) | TGI (OVCAR-8 ovarian) | TGI (NCI/ADR-RES ovarian) | TGI (HCC-2998 colon) |
| --- | --- | --- | --- | --- | --- | --- | --- | --- | --- | --- | --- | --- | --- | --- | --- | --- | --- | --- |
| CCOC(=O)/C=C1\C[C@H](NC(=O)OCc2ccccc2)C(=O)N1CC(=O)OCC | > 100 µM | > 100 µM | > 100 µM | > 100 µM | > 100 µM | > 100 µM | > 100 µM | > 100 µM | > 100 µM | > 100 µM | > 100 µM | > 100 µM | > 100 µM | > 100 µM | > 100 µM | > 100 µM | > 100 µM | > 100 µM |
| CCCCn1c2c(n(CCCC)c1=[Se])-c1c(n(CCCC)c(=[Se])n1CCCC)S[Se][Se]S2 | 70.4 µM | 49.1 µM | 80.5 µM | 42.8 µM | > 64.6 µM | 58 µM | 47.6 µM | > 65.2 µM | > 100 µM | > 92.5 µM | > 59.3 µM | 5.93 µM | > 100 µM | 29 µM | 17.7 µM | 30.5 µM | 39.5 µM | > 100 µM |
| Cc1cccc2c(=O)c3c(O)cc4c(c3n(C)c12)C=CC(C)(C)O4 | > 100 µM | > 100 µM | > 100 µM | > 100 µM | 36.8 µM | > 100 µM | > 100 µM | > 100 µM | > 100 µM | > 100 µM | > 100 µM | > 100 µM | > 100 µM | > 100 µM | > 100 µM | > 100 µM | > 100 µM | > 100 µM |
| COc1cc(C2SC(N)=Nc3c2c(C)nn3C(=O)c2ccc(Cl)cc2)ccc1O (centres undefined) | > 10 µM | > 10 µM | > 10 µM | > 10 µM | > 10 µM | > 10 µM | > 10 µM | > 10 µM | > 10 µM | > 10 µM | > 10 µM | > 10 µM | > 10 µM | > 10 µM | > 10 µM | > 10 µM | > 10 µM | > 10 µM |
| Cc1cc(C)nc(NS(=O)(=O)c2ccc(NC(=O)c3ccc4nc5ccccc5c(Nc5ccc(S(=O)(=O)Nc6nc(C)cc(C)n6)cc5)c4c3)cc2)n1 | > 100 µM | > 100 µM | > 100 µM | > 100 µM | > 100 µM | > 100 µM | > 100 µM | > 100 µM | > 100 µM | 69.7 µM | > 100 µM | > 100 µM | > 100 µM | > 100 µM | > 100 µM | > 100 µM | > 100 µM | > 100 µM |
| Cc1ccc(C)c(C(=N)c2ccccc2Cc2ccccc2)c1 | > 100 µM | 61.5 µM | 20.7 µM | 33.8 µM | 33.7 µM | 79.1 µM | 98.3 µM | > 100 µM | 47.2 µM | 83.7 µM | 56.5 µM | 46.4 µM | 46.2 µM | 33.2 µM | > 100 µM | > 100 µM | > 100 µM | 31.7 µM |
| Fc1ccc(C(OCCN2CCC3CCC(C2)N3C/C=C/c2cccnc2)c2ccc(F)cc2)cc1 (centres undefined) | 26.5 µM | 31 µM | 31.7 µM | 25.2 µM | 14.6 µM | 29.3 µM | 26.8 µM | 29.6 µM | 24.3 µM | 26.4 µM | 26.3 µM | 27 µM | 26.2 µM | 30.6 µM | 26.1 µM | 25.9 µM | 25.7 µM | 15.6 µM |
| CC1(C)N=C(N)N=C(N)N1CCCCc1ccccc1 | > 100 µM | > 100 µM | > 81.9 µM | 32.4 µM | > 100 µM | 97.5 µM | > 100 µM | > 100 µM | > 100 µM | > 100 µM | > 100 µM | > 100 µM | > 100 µM | > 100 µM | > 100 µM | > 100 µM | > 100 µM | > 51 µM |
| COc1ccc(/C=C2\CC3C4CC=C5C[C@@H](O)CC[C@]5(C)C4CC[C@]3(C)C2=O)cc1OC (some centres undefined) | > 100 µM | > 100 µM | > 100 µM | > 100 µM | > 100 µM | > 100 µM | > 100 µM | > 100 µM | > 100 µM | > 100 µM | > 100 µM | > 100 µM | > 100 µM | > 100 µM | > 100 µM | > 100 µM | > 100 µM | > 100 µM |
| N=c1oc2ccc(Cl)cc2cc1C(=O)NC1CCCCC1 | > 100 µM | > 100 µM | > 100 µM | > 100 µM | > 100 µM | > 100 µM | > 100 µM | > 100 µM | > 100 µM | > 100 µM | > 100 µM | > 100 µM | > 100 µM | > 100 µM | > 100 µM | > 100 µM | > 100 µM | 89.1 µM |
| COc1cc2c3c4c1OCc1c5c(cc(c1-4)CC3[N+](C)(C)CC2)OCO5 (centres undefined) | > 100 µM | > 100 µM | 31.7 µM | > 96.6 µM | > 100 µM | > 100 µM | > 100 µM | 54 µM | > 100 µM | 12.3 µM | > 100 µM | > 100 µM | 16.9 µM | > 100 µM | > 100 µM | > 100 µM | > 100 µM | > 100 µM |
| O=C(CSCC(=O)N/N=C/c1ccncc1)N/N=C/c1ccncc1 | > 100 µM | > 100 µM | > 100 µM | > 100 µM | > 100 µM | > 100 µM | > 100 µM | > 100 µM | > 100 µM | > 100 µM | > 100 µM | > 100 µM | > 100 µM | > 100 µM | > 100 µM | > 100 µM | > 100 µM | > 100 µM |
| CC(=O)NC1=CC(=O)C=C(Cl)C1=O | > 100 µM | > 100 µM | > 100 µM | > 100 µM | > 100 µM | > 100 µM | > 100 µM | > 100 µM | 32.2 µM | > 100 µM | > 100 µM | > 100 µM | > 100 µM | > 100 µM | > 100 µM | > 100 µM | > 100 µM | > 100 µM |
| COC(=O)c1c(OC(C)=O)ccc2c1c1cc3ccccc3c(OC(C)=O)c1n2C | > 100 µM | > 100 µM | 36.7 µM | 91.1 µM | 69.1 µM | 55.2 µM | > 100 µM | > 100 µM | > 100 µM | 81.1 µM | > 100 µM | 37 µM | > 100 µM | > 100 µM | 70.3 µM | > 100 µM | > 100 µM | 91.7 µM |
| NC1=CN(Cc2ccccc2)C2=N/C(=C\c3ccco3)C(=O)N12 | > 100 µM | > 100 µM | > 100 µM | > 100 µM | > 100 µM | > 100 µM | > 100 µM | > 100 µM | > 100 µM | > 100 µM | > 100 µM | > 100 µM | > 100 µM | > 100 µM | > 100 µM | > 100 µM | > 100 µM | > 100 µM |
| COc1ccccc1NC1=NCC(C)S1 (centres undefined) | > 100 µM | > 100 µM | > 100 µM | > 100 µM | > 100 µM | > 100 µM | > 100 µM | > 100 µM | > 100 µM | > 100 µM | > 100 µM | > 100 µM | > 100 µM | > 100 µM | > 100 µM | > 100 µM | > 100 µM | > 100 µM |
| Cc1ccc(NCc2nnc3c(-c4ccccc4)nc4ccccc4n23)cc1 | – | > 100 µM | > 100 µM | > 100 µM | > 100 µM | > 100 µM | > 100 µM | > 100 µM | > 100 µM | > 100 µM | > 100 µM | 50 µM | > 100 µM | > 100 µM | > 100 µM | > 100 µM | > 100 µM | > 100 µM |
| CC(C)(C)OC(=O)NCCCCC(NC(=O)C(Cc1c[nH]c2ccccc12)NC(=O)OCC1c2ccccc2-c2ccccc21)C(=O)O (centres undefined) (Fmoc-Trp-Lys(Boc)-OH; configuration not given here) | > 100 µM | > 100 µM | 96.2 µM | > 100 µM | > 100 µM | 35.6 µM | > 100 µM | > 100 µM | > 100 µM | > 100 µM | > 100 µM | 67 µM | > 100 µM | > 100 µM | 31.5 µM | > 100 µM | > 100 µM | > 100 µM |
| Cc1ccc2c(c1)C/C(=C\c1ccccc1C(=O)O)C2=O | > 100 µM | > 100 µM | > 100 µM | > 100 µM | > 100 µM | – | > 100 µM | > 100 µM | > 100 µM | > 100 µM | > 100 µM | > 100 µM | > 100 µM | > 100 µM | > 100 µM | > 100 µM | > 100 µM | > 100 µM |
| CCO/N=C(/CC)c1ccc(Br)s1 | > 100 µM | > 100 µM | > 100 µM | > 100 µM | > 100 µM | > 100 µM | > 100 µM | > 100 µM | > 100 µM | > 100 µM | > 100 µM | > 100 µM | > 100 µM | > 100 µM | > 100 µM | > 100 µM | > 100 µM | > 100 µM |
| Nc1c(O)c(C(=O)O)cc2ccccc12 | 65.3 µM | > 100 µM | > 100 µM | > 100 µM | 31.8 µM | > 100 µM | 41.2 µM | > 100 µM | 33.4 µM | 60.3 µM | > 100 µM | > 100 µM | > 100 µM | > 100 µM | 53.8 µM | > 100 µM | > 100 µM | > 100 µM |
| CCOC(=O)c1c[nH]c2cc3c(cc2c1=O)CCS3 | > 100 µM | > 100 µM | > 100 µM | > 100 µM | > 100 µM | > 100 µM | > 100 µM | > 100 µM | > 100 µM | > 100 µM | > 100 µM | > 100 µM | > 100 µM | > 100 µM | > 100 µM | > 100 µM | > 100 µM | > 100 µM |
